Data reported in US6583136B1, “Antifungal ethers” (Janssen Pharmacuetica N.V., priority 1999, dated 2003).

Key:
[1] = system: Cryptococcus neoformans; experiment: Determination of fungal susceptibility (MIC); type: cell-based; details: CYG medium, 5 days at 30° C., growth to 35% of control or less
Protocol: (§1) A panel of Candida isolates plus single isolates of the dermatophytes Microsporum canis, Trichophyton rubrum and Trichophyton mentagrophytes; Aspergillus fumigatus, and Cryptococcus neoformans were used to evaluate the activity of the test compounds in vitro. Inocula were prepared as broth cultures (yeasts) or as suspensions of fungal material made from agar slope cultures (moulds). The test compounds were pipetted from dimethylsulfoxide stock solution into water to provide a series of 10-fold dilutions. The fungal inocula were suspended in the growth medium CYG (F. C. Odds, Journal of Clinical Microbiology, 29, 2735-2740, 1991) at approximately 50,000 colony-forming units (CFU) per ml and added to the aqueous test drugs. The cultures were set up in the 96 wells of plastic microdilution plates and they were incubated for 2 days at 37° C. (Candida spp.) or for 5 days at 30° C. (other fungi). Growth in the microcultures was measured by their optical density (OD) measured at a wavelength of 405 nm. The OD for cultures with test compounds was calculated as a percentage of the OD for control cultures, i.e. the OD for cultures without test compounds. Inhibition of growth to 35% of control or less was recorded as significant inhibition.
(§2) Minimal inhibitory concentration (MIC; in 10^−6 M) of some of the compounds of formula (I) for Candida glabrata, Candida krusei, Candida parapsilosis, Candida albicans, Candida kefyr, Candida tropicalis, Microsporum canis, Trichophyton rubrum, Trichophyton mentagrophytes, Cryptococcus neoformans and Aspergillus fumigatus are listed in table 3.

[2] = system: Candida krusei; experiment: Determination of fungal susceptibility (MIC); type: cell-based; details: CYG medium, 2 days at 37° C., growth to 35% of control or less
Protocol: as §1, §2

[3] = system: Candida tropicalis; experiment: Determination of fungal susceptibility (MIC); type: cell-based; details: CYG medium, 2 days at 37° C., growth to 35% of control or less
Protocol: as §1, §2

[4] = system: Trichophyton mentagrophytes; experiment: Determination of fungal susceptibility (MIC); type: cell-based; details: CYG medium, 5 days at 30° C., growth to 35% of control or less
Protocol: as §1, §2

[5] = system: Candida kefyr; experiment: Determination of fungal susceptibility (MIC); type: cell-based; details: CYG medium, 2 days at 37° C., growth to 35% of control or less
Protocol: as §1, §2

[6] = system: Candida parapsilosis; experiment: Determination of fungal susceptibility (MIC); type: cell-based; details: CYG medium, 2 days at 37° C., growth to 35% of control or less
Protocol: as §1, §2

[7] = system: Trichophyton rubrum; experiment: Determination of fungal susceptibility (MIC); type: cell-based; details: CYG medium, 5 days at 30° C., growth to 35% of control or less
Protocol: as §1, §2

[8] = system: Candida glabrata; experiment: Determination of fungal susceptibility (MIC); type: cell-based; details: CYG medium, 2 days at 37° C., growth to 35% of control or less
Protocol: as §1, §2

[9] = system: Aspergillus fumigatus; experiment: Determination of fungal susceptibility (MIC); type: cell-based; details: CYG medium, 5 days at 30° C., growth to 35% of control or less
Protocol: as §1, §2

[10] = system: Microsporum canis; experiment: Determination of fungal susceptibility (MIC); type: cell-based; details: CYG medium, 5 days at 30° C., growth to 35% of control or less
Protocol: as §1, §2

[11] = system: Candida albicans; experiment: Determination of fungal susceptibility (MIC); type: cell-based; details: CYG medium, 2 days at 37° C., growth to 35% of control or less
Protocol: as §1, §2

[12] = Water solubility in citric acid/Na2HPO4 buffered water; type: physicochemical; details: water buffered with citric acid/Na2HPO4, aqueous buffer, thermodynamic from solid, UV spectroscopy
Protocol: An excess of compound was added to water buffered with 0.1 M citric acid and 0.2 M Na2HPO4 in a ratio of 61.5/38.5 (pH=4). The mixture was shaken during 1 day at room temperature. The precipitate was filtered off.

| SMILES | MIC values in 10^−6 M [1] | MIC values in 10^−6 M [2] | MIC values in 10^−6 M [3] | MIC values in 10^−6 M [4] | MIC values in 10^−6 M [5] | MIC values in 10^−6 M [6] | MIC values in 10^−6 M [7] | MIC values in 10^−6 M [8] | MIC values in 10^−6 M [9] | MIC values in 10^−6 M [10] | MIC values in 10^−6 M [11] | solubility at 1 day ([12]; pH 3.65, shaken 1 day at room temperature) [µg/mL] | solubility at 1 day ([12]; pH 4.05, shaken 1 day at room temperature) [µg/mL] |
| --- | --- | --- | --- | --- | --- | --- | --- | --- | --- | --- | --- | --- | --- |
| CC(OCC(N)Cc1ccccc1)C(C)n1ncn(-c2ccc(N3CCN(c4ccc(OCC5COC(Cn6cncn6)(c6ccc(F)cc6F)O5)cc4)CC3)cc2)c1=O (stereo not drawn) [Compound 3] | 0.1 10^−6 M | 1 10^−6 M | 0.1 10^−6 M | 1 10^−6 M | <0.01 10^−6 M | <0.01 10^−6 M | 0.1 10^−6 M | 1 10^−6 M | 1 10^−6 M | 1 10^−6 M | <0.01 10^−6 M | > 7090 | – |
| CCC(COCCN(CC)CC)n1ncn(-c2ccc(N3CCN(c4ccc(OCC5COC(Cn6cncn6)(c6ccc(F)cc6F)O5)cc4)CC3)cc2)c1=O (stereo not drawn) [Compound 5] | 1 10^−6 M | 10 10^−6 M | 1 10^−6 M | 10 10^−6 M | <0.1 10^−6 M | <0.1 10^−6 M | 10 10^−6 M | 10 10^−6 M | 1 10^−6 M | <0.1 10^−6 M | <0.1 10^−6 M | – | > 12000 |
